Data as given in paper PMC2263054, “Functional evolution of the vitamin D and pregnane X receptors” (BMC Evolutionary Biology, 2007).
Like-named read-outs stand apart in the source and are kept apart here.

Legend:
Format in all cases: cell-based
[1] = biological target: T1, Sea lamprey VDR (Petromyzon marinus, UniProt Q7ZZY9)
T1 sequence (Q7ZZY9 92-406): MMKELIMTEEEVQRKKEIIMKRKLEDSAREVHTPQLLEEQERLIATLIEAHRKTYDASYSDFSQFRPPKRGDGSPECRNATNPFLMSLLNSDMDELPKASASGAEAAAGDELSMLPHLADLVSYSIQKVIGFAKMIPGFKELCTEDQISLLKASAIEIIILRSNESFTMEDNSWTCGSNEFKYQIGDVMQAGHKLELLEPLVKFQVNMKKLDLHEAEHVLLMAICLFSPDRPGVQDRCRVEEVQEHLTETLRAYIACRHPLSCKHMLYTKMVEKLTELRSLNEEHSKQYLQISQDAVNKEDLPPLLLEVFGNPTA

[2] = biological target: T2, Zebrafish VDR (Danio rerio, UniProt Q9PTN2); assay: luciferase reporter transactivation assay in HepG2-NTCP cells, GAL4/zfVDR LBD chimera with tk-UAS-Luc; details: for Effect on zebrafish VDR: screening for activators, at least three concentrations of each drug
T2 sequence (Q9PTN2 121-453): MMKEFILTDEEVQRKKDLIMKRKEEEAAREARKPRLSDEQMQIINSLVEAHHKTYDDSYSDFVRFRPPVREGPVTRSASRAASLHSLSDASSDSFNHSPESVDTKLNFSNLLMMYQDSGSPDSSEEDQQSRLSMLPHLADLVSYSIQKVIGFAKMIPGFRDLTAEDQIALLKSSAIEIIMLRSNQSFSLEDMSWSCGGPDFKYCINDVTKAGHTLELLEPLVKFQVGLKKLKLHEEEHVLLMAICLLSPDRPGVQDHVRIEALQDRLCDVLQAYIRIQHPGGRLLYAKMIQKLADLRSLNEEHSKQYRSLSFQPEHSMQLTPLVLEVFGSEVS

[3] = biological target: T3, Xenopus laevis VDR (Xenopus laevis, UniProt O13124); assay: luciferase reporter transactivation assay in HepG2-NTCP cells, GAL4/xlVDR LBD chimera with tk-UAS-Luc; details: for Effect on Xenopus laevis VDR: screening for activators, at least three concentrations of each drug
T3 sequence (O13124 90-422): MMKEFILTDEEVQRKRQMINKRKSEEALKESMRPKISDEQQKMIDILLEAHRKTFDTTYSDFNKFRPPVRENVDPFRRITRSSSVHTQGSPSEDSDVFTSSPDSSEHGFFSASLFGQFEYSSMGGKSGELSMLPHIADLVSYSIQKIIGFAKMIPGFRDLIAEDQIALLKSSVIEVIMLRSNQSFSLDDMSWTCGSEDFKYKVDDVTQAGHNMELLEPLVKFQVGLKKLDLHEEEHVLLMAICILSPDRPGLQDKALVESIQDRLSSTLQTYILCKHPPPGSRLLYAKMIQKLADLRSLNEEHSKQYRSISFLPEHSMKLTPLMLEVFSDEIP

[4] = HepG2-NTCP cells, luciferase reporter, unit not given, also cells saying No effect
[5] = screening for activators, at least three concentrations of each drug

C[C@H](CCC(=O)O)[C@H]1CC[C@H]2[C@@H]3CC[C@@H]4C[C@H](O)CC[C@]4(C)[C@H]3CC[C@]12C [Lithocholic acid]
Sea lamprey VDR EC50 ± SD [1, 4]: No effect | Zebrafish VDR EC50 ± SD [2, 4]: No effect | Xenopus VDR EC50 ± SD [3, 4]: No effect

CC(C)=CCC[C@@H](C)[C@H]1CC[C@@]2(C)C3=C(CC[C@]12C)[C@@]1(C)CC[C@H](O)C(C)(C)[C@@H]1CC3 [Lanosterol]
Effect on sea lamprey VDR [1, 5]: No effect | Effect on zebrafish VDR [2]: No effect | Effect on Xenopus laevis VDR [3]: No effect

C[C@@]12CCC[C@H]1[C@@H]1CC[C@@H]3C[C@@H](O)CC[C@]3(C)[C@H]1CC2 [5b-Androstan-3b-ol]
Effect on sea lamprey VDR [1, 5]: No effect | Effect on zebrafish VDR [2]: No effect | Effect on Xenopus laevis VDR [3]: No effect

CC/C=C\C/C=C\C/C=C\C/C=C\C/C=C\C/C=C\CCC(=O)O [Docosa-4Z,7Z,10Z,13Z,16Z,19Z-hexanoic acid]
Effect on sea lamprey VDR [1, 5]: No effect | Effect on zebrafish VDR [2]: No effect | Effect on Xenopus laevis VDR [3]: No effect

C[C@H](CCC(=O)O)[C@H]1CC[C@H]2[C@@H]3[C@@H](O)[C@H](O)[C@@H]4C[C@H](O)CC[C@]4(C)[C@H]3CC[C@]12C [w-Muricholic acid]
Effect on sea lamprey VDR [1, 5]: No effect | Effect on zebrafish VDR [2]: No effect | Effect on Xenopus laevis VDR [3]: No effect

C[C@H](CCC(=O)O)[C@H]1CC[C@H]2[C@@H]3C(=O)C[C@@H]4C[C@H](O)CC[C@]4(C)[C@H]3CC(=O)[C@]12C [7,12-Diketolithocholic acid]
Effect on sea lamprey VDR [1, 5]: No effect | Effect on zebrafish VDR [2]: No effect | Effect on Xenopus laevis VDR [3]: No effect

Clc1cnc(Oc2ccc(Oc3ncc(Cl)cc3Cl)cc2)c(Cl)c1 [TCPOBOP]
Effect on sea lamprey VDR [1, 5]: No effect | Effect on zebrafish VDR [2]: No effect | Effect on Xenopus laevis VDR [3]: No effect

N[C@@H](Cc1cc(I)c(O)c(I)c1)C(=O)O.O.O [3,5-Diiodo-L-tyroside dihydrate]
Effect on sea lamprey VDR [1, 5]: No effect | Effect on zebrafish VDR [2]: No effect | Effect on Xenopus laevis VDR [3]: No effect

C[C@H](CCC(=O)NCCS(=O)(=O)O)[C@H]1CC[C@H]2[C@@H]3[C@H](O)C[C@@H]4C[C@H](O)CC[C@]4(C)[C@H]3CC[C@]12C [Taurochenodeoxycholic acid]
Effect on sea lamprey VDR [1, 5]: No effect | Effect on zebrafish VDR [2]: No effect | Effect on Xenopus laevis VDR [3]: No effect

CC(=O)[C@H]1CC[C@H]2[C@@H]3CC[C@@H]4C[C@H](O)CC[C@]4(C)[C@H]3CC[C@]12C [5b-Pregnan-3a-ol-20-one]
Effect on sea lamprey VDR [1, 5]: No effect | Effect on zebrafish VDR [2]: No effect | Effect on Xenopus laevis VDR [3]: No effect

COC(=O)/C=C/c1cccc(N(Cc2ccc(-c3ccc(N(C)C)cc3)cc2)C(=O)C2CCCCC2)c1 [fexaramine]
Effect on sea lamprey VDR [1, 5]: None of these three VDRs were activated | Effect on zebrafish VDR [2]: None of these three VDRs were activated | Effect on Xenopus laevis VDR [3]: None of these three VDRs were activated

C[C@]12CC[C@@H]3c4ccc(OS(=O)(=O)O)cc4CC[C@H]3[C@@H]1CCC2=O [Estrone 3-sulfate]
Effect on sea lamprey VDR [1, 5]: No effect | Effect on zebrafish VDR [2]: No effect | Effect on Xenopus laevis VDR [3]: No effect

C[C@H](CCC(=O)O)[C@H]1CC[C@H]2[C@@H]3C[C@@H](O)[C@@H]4C[C@H](O)CC[C@]4(C)[C@H]3CC[C@]12C [5b-Cholanic acid-3a,6b-diol]
Effect on sea lamprey VDR [1]: No effect | Effect on zebrafish VDR [2]: No effect | Effect on Xenopus laevis VDR [3]: No effect

C[C@]12CC[C@H](O)C[C@@H]1CC[C@@H]1[C@@H]2CC[C@]2(C)C=CC[C@@H]12 [16,(5a)-Androsten-3b-ol]
Effect on sea lamprey VDR [1, 5]: No effect | Effect on zebrafish VDR [2]: No effect | Effect on Xenopus laevis VDR [3]: No effect

CC(C)=CCC/C(C)=C/CC/C(C)=C/CC/C(C)=C/CC1=C(C)C(=O)c2ccccc2C1=O [Vitamin K2]
Effect on sea lamprey VDR [1, 5]: No effect | Effect on zebrafish VDR [2]: No effect | Effect on Xenopus laevis VDR [3]: No effect

CC[C@@]1(O)CC[C@H]2[C@@H]3CC=C4C[C@@H](OS(=O)(=O)O)CC[C@]4(C)[C@H]3CC[C@@]21C [5-Pregnen-3b,17-diol 3-sulfate]
Effect on sea lamprey VDR [1, 5]: No effect | Effect on zebrafish VDR [2]: No effect | Effect on Xenopus laevis VDR [3]: No effect

C[C@H](CCC(=O)O)[C@H]1CC[C@H]2[C@@H]3CC[C@@H]4C[C@H](O)CC[C@]4(C)[C@H]3C[C@H](O)[C@]12C [Deoxycholic acid]
Effect on sea lamprey VDR [1, 5]: No effect | Effect on zebrafish VDR [2]: No effect | Effect on Xenopus laevis VDR [3]: No effect

CC(C)[C@H](C)CC[C@@H](C)[C@H]1CC[C@H]2[C@@H]3CC=C4C[C@@H](O)CC[C@]4(C)[C@H]3CC[C@]12C [Campesterol]
Effect on sea lamprey VDR [1, 5]: No effect | Effect on zebrafish VDR [2]: No effect | Effect on Xenopus laevis VDR [3]: No effect

C[C@]12CC[C@@H]3c4ccc(O[C@@H]5O[C@H](C(=O)O)[C@@H](O)[C@H](O)[C@H]5O)cc4CC[C@H]3[C@@H]1CC[C@@H]2O [Estradiol 3-glucuronide]
Effect on sea lamprey VDR [1, 5]: No effect | Effect on zebrafish VDR [2]: No effect | Effect on Xenopus laevis VDR [3]: No effect

C[C@H](CCC(=O)NCC(=O)O)[C@H]1CC[C@H]2[C@@H]3[C@H](O)C[C@@H]4C[C@H](O)CC[C@]4(C)[C@H]3C[C@H](O)[C@]12C.O [Glycocholic acid hydrate]
Effect on sea lamprey VDR [1, 5]: No effect | Effect on zebrafish VDR [2]: No effect | Effect on Xenopus laevis VDR [3]: No effect

Cc1cc(O)c(C)c2c1O[C@](C)(CCC[C@H](C)CCC[C@H](C)CCCC(C)C)CC2 [Beta-tocopherol]
Effect on sea lamprey VDR [1, 5]: No effect | Effect on zebrafish VDR [2]: No effect | Effect on Xenopus laevis VDR [3]: No effect

C[C@]12CCC(=O)C=C1CC[C@@H]1[C@@H]2CC[C@@]2(C)[C@H]1CC[C@]2(O)C(=O)CO [4-Pregnen-17,21-diol-3,20-dione]
Effect on sea lamprey VDR [1, 5]: No effect | Effect on zebrafish VDR [2]: No effect | Effect on Xenopus laevis VDR [3]: No effect

C[C@H](O)[C@H]1CC[C@H]2[C@@H]3CC[C@@H]4C[C@H](O)CC[C@]4(C)[C@H]3CC[C@]12C [5b-Pregnan-3a,20a-diol]
Effect on sea lamprey VDR [1, 5]: No effect | Effect on zebrafish VDR [2]: No effect | Effect on Xenopus laevis VDR [3]: No effect

C[C@H](CCC(=O)NCC(=O)O)[C@H]1CC[C@H]2[C@@H]3CC[C@@H]4C[C@H](OS(=O)(=O)O)CC[C@]4(C)[C@H]3CC[C@]12C [Glycolithocholic acid 3-sulfate]
Effect on sea lamprey VDR [1, 5]: No effect | Effect on zebrafish VDR [2]: No effect | Effect on Xenopus laevis VDR [3]: No effect

C[C@H](CCC(=O)O)[C@H]1CC[C@H]2[C@@H]3[C@H](O)C[C@H]4C[C@H](O)CC[C@]4(C)[C@H]3C[C@H](O)[C@]12C [Allocholic acid]
Effect on sea lamprey VDR [1, 5]: No effect | Effect on zebrafish VDR [2]: No effect | Effect on Xenopus laevis VDR [3]: No effect

C[C@H]([C@H](O)CCC(C)(C)O)[C@H]1CC[C@@]2(O)C3=CC(=O)[C@@H]4C[C@@H](O)[C@@H](O)C[C@]4(C)[C@H]3CC[C@]12C [Ecdysone]
Effect on sea lamprey VDR [1, 5]: No effect | Effect on zebrafish VDR [2]: No effect | Effect on Xenopus laevis VDR [3]: No effect

CC(C)(c1ccc(OCC2CO2)cc1)c1ccc(OCC2CO2)cc1 (stereo not drawn) [BADGE]
Effect on sea lamprey VDR [1, 5]: No effect | Effect on zebrafish VDR [2]: No effect | Effect on Xenopus laevis VDR [3]: No effect
